Values quoted from earlier work, collected in patent US20250262218A1, “COMPOSITIONS, FORMULATIONS AND METHODS FOR STIMULATING RESPIRATION” (Auros Pharma LLC, priority 2024, published 2025).
Read-outs that look alike come from different tables or passages of the source.

Question: With `CCN1CC(CCN2CCOCC2)C(c2ccccc2)(c2ccccc2)C1=O` (stereo not shown) [doxapram, 1-ethyl-4-(2-morpholinoethyl)-3,3-diphenyl-2-pyrrolidinone] as the compound, how does the solubility (in alcohol) read?
Answer: Its solubility is “sparingly soluble”.

Question: And the solubility (in ether)?
Answer: The solubility was “practically insoluble”.

Question: What about the solubility (in water) of the same compound?
Answer: Its solubility is “soluble”.

Question: And the stability (light and air)?
Answer: The stability was “stable in light and air”.
